Measurements taken from patent US20040028753A1, “Inhalation of nitric oxide” (priority 2000, published 2004).

Experiments:
[1] = test system: pigs with endotoxin-induced acute lung damage
Procedure: The Animal Research Ethics Committee of Uppsala University approved the study. Twentysix pigs of Swedish country breed, weighing 24-29 Kg, were used in the study. Before the transport from the farm, the pigs were sedated with a neuroleptic, azaperonum ([…], Janssen, Belgium), 40 mg intramuscularly (im). Anaesthesia was induced with atropine im (0.04 mg/Kg), tiletamin/zolazepam (ZOLETIL, Virbac Laboratories) (6 mg/Kg) and xylzry (ROMPUN, Bayer AG, Germany) (2.2 mg/Kg). After induction, a cannula was inserted in an ear vein and an opioid ([…], Antigen Pharmaceuticals Ltd, Roscrea, Ireland) (5 ug/Kg) was injected. Muscle relaxation was provided by pancuronium (PAVULON, Organon Technika AB, Göteborg, Sweden) ([…]). Anaesthesia was maintained with a continuous infusion of a hypnotic (chlomethiazole, HEMINEVRIN, Astra, Södertälje, Sweden) (400 mg/hour), pancuronium (2 mg/hour) and fentanyl (150 ug/hour) Repeated doses of fentanyl 0.2-0.5 mg i.v. were given as necessary. Depth of anaesthesia was considered to be adequate when skin incisions did riot cause any changes in heart rate or blood pressure. Pre-warmed (38° C.) isotonic saline 500 ml/hour was given for hydration. The animals were placed in the supine position (dorsal recumbency) for the remainder of the study.
A tracheotomy was performed after induction of anaesthesia and a cuffed tracheal tube (inner diameter 6 mm) was inserted. A volume-controlled ventilator (Siemens 900c) provided mechanical ventilation. Transducers built into the ventilator recorded airway pressure and minute ventilation. Respiratory frequency was maintained at 20 breaths per minute with tidal volume adjusted to maintain an end-tidal CO2 (PetCO2) between 36 and 41 mm Hg (4.8-5.4 kPa). The inspiratory time was 25%; an end-inspiratory pause 5% of the respiratory cycle was applied, as well as an end-expiratory pressure (PEEP) of 5-cm H2O. Inspired fraction of oxygen (FIO2) was 0.5.
A triple lumen balloon-tipped catheter (Swan Ganz no. 7F) was introduced via the right external jugular vein to the pulmonary artery for blood sampling and pressure recordings. […] The right carotid artery was cannulated for blood sampling and recording of arterial blood pressure.
The arterial, central venous and pulmonary artery catheters were connected to appropriate pressure transducers (Sorenson Transpac.Transducers, Abbott Critical Care Systems, Ill, USA) and pressures were recorded on a Marquette 7010 monitor (Marquette Electronics Inc., WI USA). Mean arterial pressure (MAP), mean pulmonary artery pressure (MPAP), heart rate (HR), central venous pressure (CVP), pulmonary capillary wedge pressure (PCWP) and cardiac output (Qt) were recorded. Airway pressures were registered from the ventilator. Vascular pressures were averaged over the whole respiratory cycle and the mid-thorax was used as the zero reference level.
Qt was measured.by means of thermodilution: 10 ml of ice cold isotonic saline were injected as a bolus and the Qt was computed (cardiac output computer Marquette 7010, Marquette Electronics Inc., WI, USA). At least three injections were given for each measurement and the mean was calculated. The injections were evenly distributed over the respiratory cycle. The expired minute volume was recorded at each measurement. Mixed venous and arterial blood samples were collected for blood gas analysis (ABL 3, Radiometer, Copenhagen, Denmark), oxygen saturation and hemoglobin concentration (OSM 3, Radiometer, Copenhagen, Denmark). Five-ml arterial blood were collected at the same time, the plasma was separated for biochemical analysis (see below).
Acute lung damage was induced by intravenous infusion of endotoxin 25 ug/kg/hour for 3 hours, and then maintained at 10 ug/kg/hour during the remaining experimental period.
Thirty minutes after surgery, baseline measurements of hemodynamics were made, blood samples were taken and blood was collected for subsequent biochemical analysis.

COX-1 = COX-1 expression in lung tissue by Western blotting; format: in vivo, pig; details: 3 and 5 hour INO trial, no-block group
Procedure: (§1) The lung tissue blocks were rinsed by PBS at 4° C. The total protein of lung tissue was extracted by homogenization (Ultra-Turrax, Jenke and Kunkel, IKA Labortechnik, Staufen, Germany) in 5 volumes of ice-cold 0.05M Tris buffer (pH 7.4) containing 0.5 mM phenylmethyl-sulfonylfluoride to inhibit proteolysis. The supernatant was collected and stored at −80° C. until the analysis. The concentration of whole protein in the supernatant was determined by the method of Lowry. Then the protein was fractionated by sodium dodecyl sulfate-polyacrylamide gel electrophoresis, and electrophoretically transferred to a nitrocellulose membrane. The blot was blocked with 5% BSA in TBS overnight at 4° C. and then incubated with anti-COX-1 (1:2500, Cayman Chemical, MI, USA, Ca 160108), COX-2 (1:1500, Cayman Chemical, MI, USA, Ca 160108) in TBS containing 1% BSA over night at 4° C. […] The blot was washed 5 times in TBS, and the antigen-antibody complex was detected on photographic film, using enhanced chemiluminescence reagent (Amersham, Arlington Heights, Ill., USA). All the experiments were carried out three times, and the bands from each experiment were analyzed using the program of National Institutes of Health (NIH) Image 1.6 C for statistical analysis.

TXB2 = experiment: Plasma TXB2 concentration by enzyme immunoassay; format: in vivo, pig
Procedure: The injections were evenly distributed over the respiratory cycle. The expired minute volume was recorded at each measurement.
Blood was collected in pre-chilled tubes containing EDTA (10 mM, final concentration), centrifuged (10 min 40C). Measurements of TXB2 concentration were performed using a commercially available enzyme immunoassay (Thromboxane B2 EIA kit Cayman Chemical, MI, USA, Ca 519031). Serum was collected from each test tube and stored at −70° C. until TXB2 measurements were performed. To ensure that all samples were free of organic solvents, the serum was purified before its addition to the assay well. Purification of TXB2 was performed as the Cayman Chemical Introduction, by first adding 10,000 cpm of tritium-labeled TXB2 (3H-TXB2) to each sample, and then 2 ml ethanol, followed by votex 4° C. for 5 minutes, and centrifugation at 1500 g for 10 minutes to remove precipitated proteins. The supernatant was collected and mixed with ultra-pure water. The sample was passed through a C-18 reverse phase cartridge. Ten percent of the eluate was removed for scintillation counting.
Enzyme immunoassays were performed in duplicate by mixing 50 μl purified sample with 50 μl tracer and 50 μl antiserum on micro-plates. After 18 hours incubation, 200 μl Ellmans-Reagents was added to start the enzymatic reaction, and the absorption of individual vials was measured 30 minutes later at 405 nm using a photometry micro-plate reader (Thermo Max, Molecular Devices). Concentrations of TXB2 in the samples were estimated from standard curves obtained by nonlinear regression to absorption of eight known TXB2 concentrations ranging from 7.5 to 1000 pg/ml. The intra-assay and inter-assay coefficients of variation were <10%. For further details, see the TXB2 Enzyme immunoassay Kit 519031 Cayman Chemical manual.

COX-2 = COX-2 expression in lung tissue by Western blotting; format: in vivo, pig; details: no-block group
Procedure: as §1

[2] = inhalation of 30 ppm NO after 3 hours of endotoxin infusion (first trial)
[3] = second trial, after 4 hours of endotoxin infusion, 30 ppm NO
[4] = second trial, five minutes after discontinuation of NO inhalation

Row | SMILES | effect of pretreatment on MPAP ([1]; Diclofenac in saline 300 mg/Kg iv bolus 30 minutes before NO inhalation, endotoxin infusion) | effect of inhalation or discontinuation on COX-1 expression (COX-1) | plasma TXB2 level during NO inhalation (TXB2; first INO trial) | plasma TXB2 after INO withdrawal (TXB2; first INO trial, five minutes after withdrawal, p<0.05 in no-block group) | plasma TXB2 after second INO withdrawal (TXB2; second INO trial) | time to MPAP increase after discontinuation of NO inhalation ([1]; first trial) [min] | PaO2 rebound on discontinuation of NO inhalation ([1]; first trial (3 hours of endotoxin infusion)) | decrease in MPAP [1, 2] [%] | increase in PaO2 [1, 2] [%] | increase in respiratory resistance during the endotoxin infusion ([1]; pig, in vivo) | MPAP response to NO inhalation in second trial compared with first trial one hour earlier [1, 3] | PaO2 response to NO inhalation in second trial compared with first trial one hour earlier [1, 3] | MPAP increase above the pre-NO level after discontinuation [1, 4] [%] | PaO2 after discontinuation relative to pre-NO level [1, 4] | effect of thirty minutes of INO on COX-2 expression (COX-2; 3 and 5 hour inhalation test) | COX-2 expression after the INO periods (COX-2)
1 | O=C(O)Cc1ccccc1Nc1c(Cl)cccc1Cl [Diclofenac] | lowered MPAP |  |  |  |  |  |  |  |  |  |  |  |  |  |  | 
2 | [N]=O [NO, nitric oxide] |  | did not affect | did not change | increased | further increase | ≤ 5 | did not show a clear rebound phenomenon | 28 | 54 | did not prevent or attenuate the rise | weaker | weaker, and no longer significant | 26 | fallen to below the pre-NO level | had no effect | remained increased
